Measured values published in patent US20250326794A1, “ANTI-CANCER LEUCINE-RICH PEPTIDES AND USES THEREOF” (KING'S COLLEGE LONDON, priority 2019, published 2025).

What was measured:
[1] = system: HEK293T (human embryonic kidney cell); experiment: cells; details: 72 h
[2] = system: HMLER (human breast cancer bulk cell); experiment: cells; details: 72 h
Procedure, shortened: (§1)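 MTT viability after 72 h exposure to 0–100 μM compound (final DMSO 0.5% or 0%), 5×10^3 cells/well; HMLER lines and MCF-10A in MEGM, U2OS in DMEM with 10% FBS. A550 normalized to matching vehicle controls; IC50 interpolated from dose–response curves.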

[3] = system: HMLER-shEcad (human breast cancer stem cell); experiment: cells; details: 72 h
Procedure, shortened: as §1

[4] = system: MCF-10A (human breast epithelial cell); experiment: cells; details: 72 h
Procedure, shortened: as §1

[5] = system: U2OS (human bone osteosarcoma); details: 72 h
Procedure, shortened: as §1

[6] = Tryptophan fluorescent binding assay, POPC vesicles; details: 50 μM peptide, PBS pH 7.4, lipid per peptide
Procedure, shortened: (§2)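 Peptide fixed at 50 μM, titrated with POPC or 3POPC/1POPG large unilamellar vesicles (100 nm extruded; 0-5000 μM lipid) in PBS pH 7.4. Tryptophan fluorescence (ex 280, em 300-450 nm) read after 60 min; lipid concentration giving 50% binding reported as lipid/peptide ratio.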

[7] = Tryptophan fluorescent binding assay, 3POPC/1POPG vesicles; details: 50 μM peptide, PBS pH 7.4, lipid per peptide
Procedure, shortened: as §2

[8] = ANTS/DPX liposome leakage assay, POPC vesicles; assay type: biochemical; details: 0.5 mM vesicles; for Peptide Concentration-induced 50% ANTS/DPX leakage at pH 4.8, POPC Vesicle: pH 4.8, lipid per peptide; for Peptide Concentration-induced 50% ANTS/DPX leakage at pH 7.4, POPC Vesicle: pH 7.4, lipid per peptide
Procedure, shortened: (§3)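 LUVs (100 nm extruded) of POPC or POPC:POPG 3:1, loaded with 5 mM ANTS/12.5 mM DPX, used at 0.5 mM lipid with peptide 0–20 μM in PBS pH 7.4 or HCl-adjusted PBS pH 4.8. Leakage read after 3 h (ex 350/em 510 nm) against 10% Triton maximum; 50% leakage expressed as lipid per peptide.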

[9] = ANTS/DPX liposome leakage assay, 3POPC/1POPG vesicles; assay type: biochemical; details: for Peptide Concentration-induced 50% ANTS/DPX leakage at pH 4.8, 3POPC/1POPG Vesicle / Peptide Concentration-induced 50% ANTS/DPX leakage at pH 7.4, 3POPC/1POPG Vesicle: 0.5 mM vesicles; for Peptide Concentration-induced 50% ANTS/DPX leakage at pH 4.8, 3POPC/1POPG Vesicle: pH 4.8, lipid per peptide; for Peptide Concentration-induced 50% ANTS/DPX leakage at pH 7.4, 3POPC/1POPG Vesicle: pH 7.4, lipid per peptide
Procedure, shortened: as §3

Row | Structure (SMILES) | IC50 [1] [µM] | IC50 [2] [µM] | IC50 [3] [µM] | IC50 [4] [µM] | IC50 [5] [µM] | Lipid Concentration-induced 50% Peptide Binding, POPC Vesicle [6] [L/P] | Lipid Concentration-induced 50% Peptide Binding, 3POPC/1POPG Vesicle [7] [L/P] | Peptide Concentration-induced 50% ANTS/DPX leakage at pH 4.8, POPC Vesicle [8] [L/P] | Peptide Concentration-induced 50% ANTS/DPX leakage at pH 7.4, POPC Vesicle [8] [L/P] | Peptide Concentration-induced 50% ANTS/DPX leakage at pH 4.8, 3POPC/1POPG Vesicle [9] [L/P] | Peptide Concentration-induced 50% ANTS/DPX leakage at pH 7.4, 3POPC/1POPG Vesicle [9] [L/P] | liposome leakage activity from anionic vesicle at pH 4.8 (in words) ([9]; anionic versus zwitterionic vesicle, pH 4.8)
1 | CC(C)C[C@H](NC(=O)CN)C(=O)N[C@@H](CC(C)C)C(=O)N[C@@H](CCC(=O)O)C(=O)N[C@@H](CC(C)C)C(=O)N[C@@H](CC(C)C)C(=O)N[C@@H](CCC(=O)O)C(=O)N[C@@H](CC(C)C)C(=O)N[C@@H](CC(C)C)C(=O)N[C@@H](CC(C)C)C(=O)N[C@@H](CCC(=O)O)C(=O)N[C@@H](C)C(=O)N[C@@H](C)C(=O)NCC(=O)N[C@@H](Cc1c[nH]c2ccccc12)C(N)=O [EEE] | 50 | 6.25 ± 1.77 | 10.6 ± 3.46 | ≥ 100 | 78.8 ± 5.3 | 1.33 | 4.50 | 35 | 143 | 28 | 346 | –
2 | CC(C)C[C@H](NC(=O)CN)C(=O)N[C@@H](CC(C)C)C(=O)N[C@@H](CCC(=O)O)C(=O)N[C@@H](CC(C)C)C(=O)N[C@@H](CC(C)C)C(=O)N[C@@H](CCC(=O)O)C(=O)N[C@@H](CC(C)C)C(=O)N[C@@H](CC(C)C)C(=O)N[C@@H](CC(C)C)C(=O)N[C@@H](Cc1c[nH]cn1)C(=O)N[C@@H](C)C(=O)N[C@@H](C)C(=O)NCC(=O)N[C@@H](Cc1c[nH]c2ccccc12)C(N)=O [EEH] | 12.9 ± 0.14 | 3.3 ± 0.14 | 3.6 ± 0.85 | ≥ 100 | 19.6 ± 3.96 | 0.50 | 0.50 | 58 | 738 | 168 | 755 | relatively higher liposome leakage activity
3 | CC(C)C[C@H](NC(=O)CN)C(=O)N[C@@H](CC(C)C)C(=O)N[C@@H](CCCCN)C(=O)N[C@@H](CC(C)C)C(=O)N[C@@H](CC(C)C)C(=O)N[C@@H](CCC(=O)O)C(=O)N[C@@H](CC(C)C)C(=O)N[C@@H](CC(C)C)C(=O)N[C@@H](CC(C)C)C(=O)N[C@@H](Cc1c[nH]cn1)C(=O)N[C@@H](C)C(=O)N[C@@H](C)C(=O)NCC(=O)N[C@@H](Cc1c[nH]c2ccccc12)C(N)=O [KEH] | 5.65 ± 0.07 | 3.3 ± 0.42 | 2.35 ± 0.07 | – | 49.2 ± 5.3 | 1.00 | 0.50 | 188 | 995 | 68 | 286 | –
4 | CC(C)C[C@H](NC(=O)CN)C(=O)N[C@@H](CC(C)C)C(=O)N[C@@H](Cc1c[nH]cn1)C(=O)N[C@@H](CC(C)C)C(=O)N[C@@H](CC(C)C)C(=O)N[C@@H](Cc1c[nH]cn1)C(=O)N[C@@H](CC(C)C)C(=O)N[C@@H](CC(C)C)C(=O)N[C@@H](CC(C)C)C(=O)N[C@@H](Cc1c[nH]cn1)C(=O)N[C@@H](C)C(=O)N[C@@H](C)C(=O)NCC(=O)N[C@@H](Cc1c[nH]c2ccccc12)C(N)=O [HHH] | 30.6 ± 4.81 | 21.1 ± 6.93 | 9.5 ± 0.99 | – | 185 ± 7 | 0.46 | 0.82 | 173 | 1133 | 50 | 469 | –
5 | CC(C)C[C@H](NC(=O)CN)C(=O)N[C@@H](CC(C)C)C(=O)N[C@@H](CC(=O)O)C(=O)N[C@@H](CC(C)C)C(=O)N[C@@H](CC(C)C)C(=O)N[C@@H](CCCCN)C(=O)N[C@@H](CC(C)C)C(=O)N[C@@H](CC(C)C)C(=O)N[C@@H](CC(C)C)C(=O)N[C@@H](CCC(=O)O)C(=O)N[C@@H](C)C(=O)N[C@@H](C)C(=O)NCC(=O)N[C@@H](Cc1c[nH]c2ccccc12)C(N)=O [DKE] | 7.8 ± 1.41 | 2.1 | 1.57 ± 0.33 | – | 9.93 ± 0.25 | 0.56 | 0.46 | 21 | 747 | 469 | 411 | –
6 | CC(C)C[C@H](NC(=O)CN)C(=O)N[C@@H](CC(C)C)C(=O)N[C@@H](Cc1c[nH]cn1)C(=O)N[C@@H](CC(C)C)C(=O)N[C@@H](CC(C)C)C(=O)N[C@@H](CCCCN)C(=O)N[C@@H](CC(C)C)C(=O)N[C@@H](CC(C)C)C(=O)N[C@@H](CC(C)C)C(=O)N[C@@H](CCC(=O)O)C(=O)N[C@@H](C)C(=O)N[C@@H](C)C(=O)NCC(=O)N[C@@H](Cc1c[nH]c2ccccc12)C(N)=O [HKE] | 5.15 ± 0.64 | 2.7 ± 0.28 | 1.9 ± 0.42 | – | 16 ± 0.78 | 0.75 | 0.25 | 173 | 692 | 94 | 365 | –
7 | CC(C)C[C@H](NC(=O)CN)C(=O)N[C@@H](CC(C)C)C(=O)N[C@@H](Cc1c[nH]cn1)C(=O)N[C@@H](CC(C)C)C(=O)N[C@@H](CC(C)C)C(=O)N[C@@H](CCCCN)C(=O)N[C@@H](CC(C)C)C(=O)N[C@@H](CC(C)C)C(=O)N[C@@H](CC(C)C)C(=O)N[C@@H](Cc1c[nH]cn1)C(=O)N[C@@H](C)C(=O)N[C@@H](C)C(=O)NCC(=O)N[C@@H](Cc1c[nH]c2ccccc12)C(N)=O [HKH] | 5.7 ± 0.99 | 3.45 ± 0.21 | 3.1 ± 0.57 | – | 18.9 ± 1.24 | 0.18 | 0.38 | 193 | 1077 | 47 | 274 | –
8 | CC(C)C[C@H](NC(=O)CN)C(=O)N[C@@H](CC(C)C)C(=O)N[C@@H](CCCCN)C(=O)N[C@@H](CC(C)C)C(=O)N[C@@H](CC(C)C)C(=O)N[C@@H](Cc1c[nH]cn1)C(=O)N[C@@H](CC(C)C)C(=O)N[C@@H](CC(C)C)C(=O)N[C@@H](CC(C)C)C(=O)N[C@@H](Cc1c[nH]cn1)C(=O)N[C@@H](C)C(=O)N[C@@H](C)C(=O)NCC(=O)N[C@@H](Cc1c[nH]c2ccccc12)C(N)=O [KHH] | 7.75 ± 0.78 | 5.2 ± 0.71 | 4.45 ± 0.49 | – | 39.8 ± 5.3 | 3.50 | 0.94 | 227 | 1153 | 48 | 329 | –
9 | CC(C)C[C@H](NC(=O)CN)C(=O)N[C@@H](CC(C)C)C(=O)N[C@@H](Cc1c[nH]cn1)C(=O)N[C@@H](CC(C)C)C(=O)N[C@@H](CC(C)C)C(=O)N[C@@H](CCC(=O)O)C(=O)N[C@@H](CC(C)C)C(=O)N[C@@H](CC(C)C)C(=O)N[C@@H](CC(C)C)C(=O)N[C@@H](Cc1c[nH]cn1)C(=O)N[C@@H](C)C(=O)N[C@@H](C)C(=O)NCC(=O)N[C@@H](Cc1c[nH]c2ccccc12)C(N)=O [HEH] | 8.8 ± 1.7 | 28.6 ± 10.8 | 11 ± 1.06 | – | 106 ± 14 | 0.88 | 3.50 | 173 | 995 | 24 | 505 | –
